This is an account of results in US5521193A, “Benzimidazole compounds” (G. D. Searle & Co., priority 1995, dated 1996).

The structures appear in SMILES notation.

The target of experiment [1] is T1, 5-HT4 receptor (Rattus norvegicus, UniProt Q62758).
T1 construct: One 2 cm segment of intrathoracic esophagus proximal to the diaphragm was removed from male rats; from tissue; host or cells: rat intrathoracic oesophagus, inner tunica muscularis mucosae
The experiment is described as follows: biochemical. The conditions noted are these: carbachol (3 μM)-contracted rat esophagus TMM; 37° C.; tissues from 5 rats; read-out: 5-HT4 Agonism (Rat TMM) In Vitro Assay: EC50 Values. The procedure:
5-HT4 agonist activity was determined in the in vitro rat tunice muscularis mucosae (TMM) assay. (Baxter et el., Naunyn Schmied Arch. Pharmacol, 1991, 343,439). The 5-HT4 agonist or antagonist activity and/or 5-HT3 antagonist activity of the compounds of the invention herein, can be determined by the assays as described herein, without undue experimention.
Agonist activity was determined utilizing relaxation of carbachol-contracted rat tunica muscularis mucosae. One 2 cm segment of intrathoracic esophagus proximal to the diaphragm was removed from male rats, weighing approximately 300 gm, and the outer muscle layers removed. The inner tunica muscularis mucosa was mounted under 0.2-0.3 g of tension in a tissue bath containing oxygenated Tyrode's solution at 37° C. […] Following a 30 min equilibrium period, tissues were isometrically contracted with carbachol (3 μM) to obtain a tonic contraction. A stable plateau was obtained within 20 min when test compound was added cumulatively to relax the muscle strip. EC50 values were obtained for each agonist in tissues from 5 rats.

The target of experiment [2] is T2, 5-HT3 receptor (Rattus norvegicus, UniProt P35563).
T2 construct: Brain cortices were obtained from male rats and a membrane fraction prepared by standard techniques; from tissue; host or cells: rat brain cortex membranes
T2 sequence (P35563 24-483): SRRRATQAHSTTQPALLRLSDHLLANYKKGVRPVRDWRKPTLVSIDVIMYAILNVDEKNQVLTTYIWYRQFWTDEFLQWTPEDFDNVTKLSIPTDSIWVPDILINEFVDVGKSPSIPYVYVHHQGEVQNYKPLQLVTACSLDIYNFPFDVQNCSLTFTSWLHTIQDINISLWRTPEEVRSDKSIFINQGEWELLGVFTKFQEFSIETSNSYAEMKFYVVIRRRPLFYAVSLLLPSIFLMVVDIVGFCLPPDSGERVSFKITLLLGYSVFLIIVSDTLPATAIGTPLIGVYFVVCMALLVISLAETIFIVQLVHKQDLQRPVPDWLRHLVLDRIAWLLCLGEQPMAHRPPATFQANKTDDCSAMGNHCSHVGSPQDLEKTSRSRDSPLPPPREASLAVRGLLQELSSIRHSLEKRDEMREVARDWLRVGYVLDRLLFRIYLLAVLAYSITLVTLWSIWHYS
Briefly: Serotonin (5-HT3) radioligand binding, [3H]-GR65630, rat brain cortex membranes. The note with it: for Ki: [3H]-GR65630 0.2 nM, 60 min, 22° C. The procedure: GR65630 binds to the 5-HT3 receptor. Brain cortices were obtained from male rats and a membrane fraction prepared by standard techniques. 0.04 mg of membrane prep was incubated with 0.2 nM […] for 60 minutes at 22° C. […] Membranes were filtered and washed times and the filters were counted to determine [3H]-GR65630 specifically bound. Kilpatrick G. J., Jones B. J. and Tyers M. B. Identification and distribution of 5-HT3 receptors in rat brain using radioligand binding assay. Nature, 330 : 746-748, 1987.

T1 sequence (Q62758 whole entry): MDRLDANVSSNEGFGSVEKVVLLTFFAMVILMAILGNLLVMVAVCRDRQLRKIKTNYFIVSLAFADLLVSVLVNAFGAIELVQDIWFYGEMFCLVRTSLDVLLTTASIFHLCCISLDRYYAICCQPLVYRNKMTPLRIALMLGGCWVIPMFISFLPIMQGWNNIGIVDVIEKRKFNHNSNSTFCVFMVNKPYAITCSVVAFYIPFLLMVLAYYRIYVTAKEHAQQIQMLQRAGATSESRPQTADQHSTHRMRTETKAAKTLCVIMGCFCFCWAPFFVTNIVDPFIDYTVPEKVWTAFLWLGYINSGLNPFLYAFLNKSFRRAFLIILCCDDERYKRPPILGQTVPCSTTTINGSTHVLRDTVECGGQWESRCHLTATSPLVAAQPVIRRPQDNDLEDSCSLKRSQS

As a reminder, the EC50 is the concentration needed to bring the measured effect to its halfway point. Usually Ki stands for a dissociation constant, usually derived from enzyme kinetics or from competition with a known ligand. As to `CC(C)n1c(=O)n(C(=O)N[C@@H]2[C@@H]3C[C@H]4CN(C3)C[C@H]42)c2ccccc21` (relative stereo) [Example 24, N-(hexahydro-1H-2,5β-methano-3aα,6aα-cyclopenta [c]pyrrol-4α-yl)-2,3-dihydro-3-(1-methylethyl)-2-oxo 1H-benzimidazole-1-carboxamide], the half-maximal effective concentration (EC50) in experiment [1] came to 1510 nM. Also, affinity in experiment [2] was put at a Ki of 2 nM.
With `CC(C)n1c(=O)n(C(=O)NC[C@@H]2CN3CC[C@H]2C3)c2ccccc21` (relative stereo) [Example 35, N-[(endo-1-azabicyclo[2.2.1]heptan-3-yl)methyl-]-2,3-dihydro-3-(1-methylethyl) -2-oxo-1H-benzimidazole-1-carboxamide], in experiment [1], the half-maximal effective concentration (EC50) was determined as 294 nM.
Still for that read-out and setting: then `CC(C)n1c(=O)n(C(=O)NC[C@H]2CN3CC[C@H]2C3)c2ccccc21` (relative stereo) [Example 36, N-[(exo-1-azabicyclo[2.2.1]heptan-3-yl)methyl-]-2,3-dihydro-3-(1-methylethyl) 2-oxo-1H-benzimidazole-1-carboxamide], with 302 nM.
Turning to `CC(C)n1c(=O)n(C(=O)NCCC23CCCN2CCC3)c2ccc(Cl)cc21` [Example 12, 5-chloro-N-[2-(hexahydro-7aH-pyrrolizin-7a-yl)ethyl]2,3-dihydro-3-(1-methylethyl)-2-oxo-1H-benzimidazole 1-carboxamide], in experiment [1], the 50% effective concentration (EC50) amounted to 9470 nM. The compound further registered an inhibitory constant (Ki) in experiment [2] of 2800 nM.
`CC(C)n1c(=O)n(C(=O)NCCC23CCCN2CCC3)c2cc(Cl)ccc21` [Example 12A, 6-Chloro-N-[2-(hexahydro-7aH-pyrrolizin-7a-yl)ethyl]2,3-dihydro-3-(1-methylethyl)-2-oxo-1H-benzimidazole 1-carboxamide]: the concentration for a half-maximal effect (EC50) in experiment [1] was 1360 nM.
On the same count and under the same terms, then `CC(C)n1c(=O)n(C(=O)NCCC23CCCN2CCC3)c2cc(Cl)c(N)cc21` [Example 12B, 6-Chloro-5-amino-N-[2-(hexahydro-7aH-pyrrolizin-7a-yl)ethyl]-2,3-dihydro-3-(1-methylethyl)-2-oxo-1H-benzimidazole-1-carboxamide], with 374 nM.
`CC(C)n1c(=O)n(C(=O)NCC23CCCN2CCC3)c2ccccc21` [Example 14, N-[(hexahydro-7aH-pyrrolizin-7a-yl)methyl]-2,3-dihydro-3-(1-methylethyl) 2-oxo-1H-benzimidazole-1-carboxamide]: in experiment [1], the half-maximal effective concentration (EC50) was determined as 3830 nM. The compound also returned a Ki in experiment [2] of 36 nM.
For the compound `CC(C)n1c(=O)n(C(=O)N[C@H]2C[C@@H]3CN(C)C[C@@H]3C2)c2ccccc21` [Example 14A], the EC50 in experiment [1] turned out to be 874 nM.
Regarding `CCn1c(=O)n(C(=O)NC2C3CC4CC2CN(C4)C3)c2ccccc21` (stereo not drawn) [Example 15, N-(1-azatricyclo[3.3.1.1^3,7]decan-4-yl)-3-ethyl-2,3-dihydro-2-oxo 1H-benzimidazole-1-carboxamide], the EC50 in experiment [1] amounted to 4580 nM. The compound further came in with a Ki in experiment [2] of 92 nM.
On the same counts, the results for `CC(C)n1c(=O)n(C(=O)NC2C3CC4CC2CN(C4)C3)c2cc(Cl)ccc21` (stereo not drawn) [Example 16, N-(1-azatricyclo[3.3.1.1^3,7]decan-4-yl)-6-chloro-2,3-dihydro-3-(1-methylethyl) 2-oxo-1H-benzimidazole-1-carboxamide] are 10000 nM and 1200 nM.
Consider `CCn1c(=O)n(C(=O)NC2C3CC4CC2CN(C4)C3)c2cc(Cl)ccc21` (stereo not drawn) [Example 18, N-(1-azatricyclo[3.3.1.1^3,7]decan-4-yl)-6-chloro-3-ethyl-2,3-dihydro 2-oxo-1H-benzimidazole-1-carboxamide], for which the inhibition constant Ki in experiment [2] came to 1200 nM.
As to `CCn1c(=O)n(C(=O)NC2C3CC4CC2CN(C4)C3)c2ccc(Cl)cc21` (stereo not drawn) [Example 19, N-(1-azatricyclo[3.3.1.1^3,7]decan-4-yl)-5-chloro-3-ethyl-2,3-dihydro 2-oxo-1H-benzimidazole-1-carboxamide], affinity in experiment [2] was put at a Ki of 1200 nM. That is a single-digit micromolar value.
Regarding `CC(C)n1c(=O)n(C(=O)NCC2C3CC4CC2CN(C4)C3)c2ccccc21` (stereo not drawn) [Example 19B, N-(1-azatricyclo[3.3.1.1.^3,7]decan-4-ylmethyl)-2,3-dihydro-3-(1-methylethyl) 2-oxo-1H-benzimidazole-1-carboxamide], the 50% effective concentration (EC50) in experiment [1] came to 926 nM.
Turning to `CCn1c(=O)n(C(=O)NC2C3CC4CC2CN(C4)C3)c2ccccc21` (stereo not drawn) [Example 20, N-(1-azatricyclo[3.3.1.1^3,7]decan-4-yl)-3-ethyl-2,3-dihydro-2-oxo-1H-benzimidazole 1-carboxamide], in experiment [1], the EC50 was determined as 10000 nM. Also, affinity in experiment [2] was put at a Ki of 19 nM.
On the same counts, the results for `CCn1c(=O)n(C(=O)NC2C3CC4CC2CN(C4)C3)c2cc(Cl)ccc21` (stereo not drawn) [Example 21, N-(1-azatricyclo[3.3.1.1^3,7]decan-4-yl)-6-chloro-3-ethyl-2,3-dihydro 2-oxo-1H-benzimidazole-1-carboxamide] are 2140 nM and 55 nM.
In turn, `CCn1c(=O)n(C(=O)NC2C3CC4CC2CN(C4)C3)c2ccc(Cl)cc21` (stereo not drawn) [Example 22, N-(1-azatricyclo[3.3.1.1^3,7]decan-4-yl)-5-chloro-3-ethyl-2,3-dihydro 2-oxo-1H-benzimidazole-1-carboxamide] gave a Ki in experiment [2] of 360 nM.
Take `CC(C)n1c(=O)n(C(=O)NCC2C3CC4CC2CN(C4)C3)c2cc(Cl)ccc21` (stereo not drawn) [Example 22C, N-(1-azatricyclo[3.3.1.1^3,7]decan-4-ylmethyl)-6-chloro-2,3-dihydro-3-(1-methylethyl) 2-oxo-1H-benzimidazole-1-carboxamide]: the concentration giving a half-maximal response (EC50) in experiment [1] was determined as 722 nM.
On the same count and under the same terms, then `CC(C)n1c(=O)n(C(=O)NCC2C3CC4CC2N(C4)C3)c2ccccc21` (stereo not drawn) [Example 29, N-[(Hexahydro-2β,6β-methano-1H, 7aα-pyrrolizin-1β-yl)methyl]2,3-dihydro-3-(1-methylethyl)-2-oxo-1H-benzimidazole-1-carboxamide], with 1630 nM; and `CC(C)n1c(=O)n(C(=O)NCC2C3CC4CC2N(C4)C3)c2ccccc21` (stereo not drawn) [Example 30, N-[(Hexahydro-2β,6β-methano-1H, 7aα-pyrrolizin-1α-yl)methyl]2,3-dihydro-3-(1-methylethyl)-2-oxo-1H-benzimidazole-1-carboxamide], with 219 nM.
As to `CC(C)n1c(=O)n(C(=O)NCC2C3CC4CC2CN4C3)c2ccccc21` (stereo not drawn) [Example 32, N-(Hexahydro-2,6-methano-1H-pyrrolizin-8-ylmethyl]-2,3-dihydro-3(1-methylethyl)-2-oxo-1H-benzimidazole-1-carboxamide], the 50% effective concentration (EC50) in experiment [1] came out at 1320 nM.
Still for that read-out and setting: then `CC(C)n1c(=O)n(C(=O)NCC23CC4CN(CC4C2)C3)c2ccccc21` [Example 33, N-[(Hexahydro-2,5β-methano-1H-3aα,6aα-cyclopenta-[c]pyrrol-5-yl)methyl]-2,3-dihydro 3-(1-methylethyl)-2-oxo-1H-benzimidazole-1-carboxamide], with 337 nM; and `CC(C)n1c(=O)n(C(=O)NCC23CC4CN(CC4C2)C3)c2cc(Cl)ccc21` [Example 34, N-[(Hexahydro-2,5β-methano-1H-3aα,6aα-cyclopenta[c]-pyrrol-5-yl)methyl]-6-chloro-2,3-dihydro-3-(1-methylethyl)-2-oxo-1-benzimidazole-1-carboxamide], with 248 nM.
In experiment [2] ([3H]-GR65630, rat brain cortex membranes), `Cc1nc[nH]c1CCC(=O)c1cn(C)c2ccccc12` [GR65630, reference compound] came in with a Bmax of 154 fmol/mg protein.
